Among the test systems are DU-145 prostate; NCI-H522 lung; PC-3 prostate; EKVX NSCLC; SF-268 CNS; UO-31 renal; HCT-15 colon; SNB-19 CNS; OVCAR-5 ovarian; SF-539 CNS; KM12 colon.
Assay in all cases: DTP human tumour cell line panel, 48 h

Values joined by “and” are separate entries in the source; they are usually repeats but may differ in a detail not shown here. Equal entries are not always repeated.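 Tested at 5 concentrations; 48 h exposure; 96-well plates; endpoints linearly interpolated, else capped at highest concentration. The concentration for 50% growth inhibition is given as GI50. At the TGI there is no net growth.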

For orientation: TGI means the concentration at which net growth stops. Low readings indicate greater sensitivity of the cells, high ones lower sensitivity of the cells. As for `CSc1nc(-c2ccc(Cl)cc2)c(C#N)c(=O)[nH]1`, the TGI in the assay on DU-145 prostate, in the assay with NCI-H522 lung, in the assay on PC-3 prostate, in the assay on EKVX NSCLC, in the assay on SF-268 CNS and in the assay on UO-31 renal was above 100 µM in each case. Also, the TGI in the assay on HCT-15 colon, in the assay on SNB-19 CNS, with OVCAR-5 ovarian, with SF-539 CNS and in the assay with KM12 colon was above 100 µM in each case.
Take `c1cc(C[S+]2CCCC2)oc1C[S+]1CCCC1`: the concentration for total growth inhibition (TGI) with DU-145 prostate, with NCI-H522 lung, with PC-3 prostate, with EKVX NSCLC, in the assay on SF-268 CNS and in the assay with UO-31 renal was above 100 µM in each case. Further, the total growth inhibition concentration (TGI) in the assay with HCT-15 colon, with SNB-19 CNS and in the assay on SF-539 CNS was above 100 µM each time.
Take `CCCCCCC(=O)OC[n+]1cccc(-c2c(COC(=O)NC(C)C)c(COC(=O)NC(C)C)c3n2CCC3)c1`: the TGI in the assay on DU-145 prostate is 98.4 µM; in the assay with NCI-H522 lung, 43.6 µM; in the assay with PC-3 prostate, above 100 µM; in the assay with EKVX NSCLC it was above 100 µM; in the assay on SF-268 CNS it was 69.9 µM; with UO-31 renal it was 63.7 µM. For the same compound, the TGI was above 100 µM with HCT-15 colon; above 100 µM in the assay on SNB-19 CNS; above 100 µM in the assay with OVCAR-5 ovarian; above 75 µM in the assay with SF-539 CNS; above 100 µM with KM12 colon.
As to `CC(Cc1ccc2c(c1)OCO2)N(C)C(=O)C1=CCN(C)CC1` (stereo not given), the TGI in the assay on DU-145 prostate, in the assay on NCI-H522 lung, with PC-3 prostate, with EKVX NSCLC, in the assay with SF-268 CNS and in the assay with UO-31 renal was above 100 µM in each case. Besides, the TGI in the assay with HCT-15 colon, in the assay on SNB-19 CNS, in the assay on OVCAR-5 ovarian and in the assay on KM12 colon was above 100 µM each time.
For `Nc1cc(N)c(N=Nc2cccc3c(S(=O)(=O)O)cccc23)cc1N=Nc1cc([N+](=O)[O-])ccc1O`, the TGI in the assay on DU-145 prostate was above 100 µM; in the assay with NCI-H522 lung, 61.4 µM; in the assay on PC-3 prostate it was above 100 µM; with EKVX NSCLC, above 100 µM; in the assay on SF-268 CNS, 54.8 µM; with UO-31 renal, above 100 µM. Further, the TGI in the assay on HCT-15 colon is 61 µM; with SNB-19 CNS, above 100 µM; with OVCAR-5 ovarian, 93.9 µM; in the assay on SF-539 CNS it was above 100 µM; in the assay on KM12 colon it was above 100 µM.
Take `C=CC[C@H]1[C@H](O[Si](C)(C)C(C)(C)C)C=CC(=O)[C@@H]1CC(=O)OCC`: the TGI in the assay on DU-145 prostate turned out to be 32.8 µM; in the assay with NCI-H522 lung, 26.1 µM; in the assay with PC-3 prostate, 21.3 µM; in the assay with EKVX NSCLC, 24.2 µM; with SF-268 CNS, 28.9 µM; in the assay with UO-31 renal it was 25.6 µM. Further, the TGI in the assay on HCT-15 colon was determined as 26.6 µM; in the assay with SNB-19 CNS, 25.7 µM; in the assay on OVCAR-5 ovarian, 27.1 µM; with SF-539 CNS, 30.8 µM; with KM12 colon it was 27.2 µM.
Turning to `Cc1ccc(-n2cc(-c3ccc(Cl)cc3)c(C#N)c2N)cc1`, the TGI in the assay with DU-145 prostate was 71.4 µM; with NCI-H522 lung, 24.7 µM; with PC-3 prostate, 25.4 µM; with EKVX NSCLC, 30.5 µM; in the assay with SF-268 CNS, 42.3 µM; with UO-31 renal it was 26.5 µM. The TGI worked out at 25 µM in the assay on HCT-15 colon, 38.1 µM in the assay with SNB-19 CNS, 30.6 µM in the assay with OVCAR-5 ovarian and 30.9 µM in the assay on SF-539 CNS.
As to `COc1nc(C)nc2c1ncn2Cc1ccccc1`, the TGI in the assay with DU-145 prostate, in the assay on NCI-H522 lung, in the assay on PC-3 prostate, with EKVX NSCLC, with SF-268 CNS and in the assay on HCT-15 colon was above 100 µM each time. Further, the total growth inhibition concentration (TGI) in the assay on SNB-19 CNS, in the assay with OVCAR-5 ovarian, in the assay on SF-539 CNS and in the assay on KM12 colon was above 100 µM in each case.
`CCCN(CCC)C(=O)c1c(Cl)c2cccnc2n2c(C)cnc12`: the TGI was above 100 µM with DU-145 prostate; above 100 µM in the assay on NCI-H522 lung; 98.6 µM in the assay on PC-3 prostate; above 100 µM with EKVX NSCLC; above 100 µM in the assay with SF-268 CNS; above 100 µM in the assay with UO-31 renal. For the same compound, the TGI with SNB-19 CNS, in the assay on OVCAR-5 ovarian, in the assay on SF-539 CNS and in the assay on KM12 colon was above 100 µM throughout.
As to `c1ccc(CSC(SCc2ccccc2)c2ccc3c(c2)OCO3)cc1`, the TGI in the assay on DU-145 prostate, with NCI-H522 lung, in the assay with PC-3 prostate, with EKVX NSCLC, with SF-268 CNS and in the assay on UO-31 renal was above 10 µM throughout. Also, the concentration for total growth inhibition (TGI) in the assay with HCT-15 colon, in the assay with SNB-19 CNS, in the assay with SF-539 CNS and with KM12 colon was above 10 µM throughout.
`Cc1ccc([N+](=O)[O-])c2c(NCCC[N+](C)(C)[O-])ccnc12`: the TGI with DU-145 prostate was above 100 µM; in the assay with NCI-H522 lung it was 32.6 µM; with PC-3 prostate it was above 100 µM; in the assay on EKVX NSCLC, above 100 µM; in the assay on SF-268 CNS it was above 100 µM; in the assay with UO-31 renal, above 100 µM. In addition, the TGI in the assay on SNB-19 CNS was above 100 µM; with OVCAR-5 ovarian it was 84.3 µM; with SF-539 CNS, above 100 µM; in the assay on KM12 colon it was above 100 µM.
As to `CC(=O)Oc1cc(S(=O)(=O)Nc2n[nH]c(N)n2)c(S)cc1Cl`, the TGI in the assay on DU-145 prostate, in the assay on NCI-H522 lung, in the assay with PC-3 prostate, in the assay on EKVX NSCLC, in the assay on UO-31 renal and in the assay with HCT-15 colon was above 100 µM in each case. In addition, the TGI in the assay with SNB-19 CNS, in the assay on OVCAR-5 ovarian, in the assay with SF-539 CNS and with KM12 colon was above 100 µM in each case.
For orientation: GI50 means the concentration that inhibits growth by half. With `C(=N/NC1=NCCN1)/c1c2ccccc2c(/C=N\NC2=NCCN2)c2ccccc12`, the values for the GI50 in the assay with DU-145 prostate and in the assay with PC-3 prostate were 0.0878 µM and 0.0776 µM, respectively. For the same compound, the TGI in the assay on DU-145 prostate was 0.623 µM and 3.43 µM; in the assay with NCI-H522 lung, 0.214 µM and 0.262 µM and 0.387 µM; in the assay with PC-3 prostate, 0.348 µM and 0.422 µM; with EKVX NSCLC it was 2.32 µM and 2.94 µM and 1.57 µM; in the assay with SF-268 CNS it was 0.558 µM and 0.722 µM and 0.747 µM; in the assay on HCT-15 colon, 214 µM. For the same compound, the TGI with SNB-19 CNS is 0.458 µM and 0.922 µM and 2.15 µM; with OVCAR-5 ovarian, 1.38 µM and 0.95 µM and 0.793 µM; in the assay on SF-539 CNS, 0.345 µM and 0.857 µM and 0.402 µM; in the assay with KM12 colon, 0.816 µM and 0.96 µM and 2 µM.
